Experimental data reported in PubChem BioAssay (NCI).
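All cell lines were grown in 96-well plates and treated with compound for 48 hours. GI50 = concentration required for 50% inhibition of growth. TGI is the concentration that stops growth completely.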

Assays:
Assay in all cases: growth of human tumour cells (NCI), 48 h
NCI-H23 lung = test system: NCI-H23 lung
NCI-H460 lung = test system: NCI-H460 lung
NCI-H522 lung = test system: NCI-H522 lung
NCI/ADR-RES ovarian = test system: NCI/ADR-RES ovarian
OVCAR-3 ovarian = test system: OVCAR-3 ovarian
OVCAR-4 ovarian = test system: OVCAR-4 ovarian
OVCAR-5 ovarian = test system: OVCAR-5 ovarian
OVCAR-8 ovarian = test system: OVCAR-8 ovarian
PC-3 prostate = test system: PC-3 prostate
RPMI-8226 leukemia = test system: RPMI-8226 leukemia
RXF 393 renal = test system: RXF 393 renal
SF-268 CNS = test system: SF-268 CNS
SF-295 CNS = test system: SF-295 CNS
SF-539 CNS = test system: SF-539 CNS
SK-MEL-2 melanoma = test system: SK-MEL-2 melanoma
SK-MEL-28 melanoma = test system: SK-MEL-28 melanoma
SK-MEL-5 melanoma = test system: SK-MEL-5 melanoma
SK-OV-3 ovarian = test system: SK-OV-3 ovarian
SN12C renal = test system: SN12C renal
SNB-19 CNS = test system: SNB-19 CNS
SNB-75 CNS = test system: SNB-75 CNS
SR leukemia = test system: SR leukemia
SW-620 colon = test system: SW-620 colon
T-47D breast = test system: T-47D breast
TK-10 renal = test system: TK-10 renal
U251 CNS = test system: U251 CNS
UACC-257 melanoma = test system: UACC-257 melanoma
UACC-62 melanoma = test system: UACC-62 melanoma
UO-31 renal = test system: UO-31 renal

## Cc1cc(-c2ccccc2)c(C)n1Cc1ccc(Cl)cc1
NCI-H23 lung
  TGI: > 100 µM
NCI-H460 lung
  GI50: 3.75 µM
  TGI: > 100 µM
NCI-H522 lung
  GI50: 2570 nM
  TGI: 9.26 µM
NCI/ADR-RES ovarian
  GI50: 3.64 µM
  TGI: 66.3 µM
OVCAR-3 ovarian
  GI50: 3.54 µM
  TGI: 23.5 µM
OVCAR-4 ovarian
  GI50: 9.56 µM
  TGI: > 100 µM
OVCAR-5 ovarian
  GI50: 12.3 µM
  TGI: > 100 µM
OVCAR-8 ovarian
  GI50: 5.95 µM
  TGI: > 100 µM
PC-3 prostate
  GI50: 5.18 µM
  TGI: > 100 µM
RPMI-8226 leukemia
  GI50: 3.83 µM
  TGI: 61.6 µM
RXF 393 renal
  GI50: 2330 nM
  TGI: 16.6 µM
SF-268 CNS
  GI50: 13.6 µM
  TGI: > 100 µM
SF-295 CNS
  GI50: 2740 nM
  TGI: 9.33 µM
SF-539 CNS
  GI50: 2800 nM
  TGI: 12.1 µM
SK-MEL-2 melanoma
  GI50: 4.24 µM
  TGI: 19.5 µM
SK-MEL-28 melanoma
  GI50: 6.18 µM
  TGI: > 100 µM
SK-MEL-5 melanoma
  GI50: 4.23 µM
  TGI: 66.8 µM
SK-OV-3 ovarian
  GI50: 5.92 µM
  TGI: > 100 µM
SN12C renal
  GI50: 5.78 µM
  TGI: > 100 µM
SNB-19 CNS
  GI50: 36.4 µM
  TGI: > 100 µM
SNB-75 CNS
  GI50: 3.17 µM
  TGI: > 100 µM
SR leukemia
  GI50: 592 nM
  TGI: 26.7 µM
SW-620 colon
  GI50: 3.06 µM
  TGI: > 100 µM
T-47D breast
  GI50: 5.26 µM
  TGI: > 100 µM
TK-10 renal
  GI50: 9.66 µM
  TGI: 65.4 µM
U251 CNS
  GI50: 4.65 µM
  TGI: > 100 µM
UACC-257 melanoma
  GI50: 5.39 µM
  TGI: 78.6 µM
UACC-62 melanoma
  GI50: 3.44 µM
  TGI: > 100 µM
UO-31 renal
  GI50: 5.45 µM
  TGI: > 100 µM
